Test results taken from patent US11434246B2, “EP4 antagonists” (Eisai R&D Management Co., Ltd., priority 2015, dated 2022).

Biological target: EP4 (Homo sapiens, UniProt P35408)
Assay: EP4 Antagonism by CRE-PLAP Reporter Assay (SE302 cells, PGE2-stimulated)
Assay type: cell-based
Set-up: HEK293 cells express endogenous EP4; endogenous in cells; host or cells: SE302 (HEK293 clone with CRE-PLAP reporter)
Conditions: SE302 (HEK293) cells, 3 ng/mL PGE2, overnight; single or multiple assay average values
In short: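 HEK293-derived SE302 cells with endogenous EP4 and CRE-driven secreted PLAP, in serum-free medium with 0.1% BSA, stimulated overnight with 3 ng/mL PGE2 plus compound. Supernatant PLAP read by luminescence (pH 11 carbonate buffer, 2 h). IC50 from % of control, normalized to DMSO with and without PGE2.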

Chain of EP4 (P35408 whole entry): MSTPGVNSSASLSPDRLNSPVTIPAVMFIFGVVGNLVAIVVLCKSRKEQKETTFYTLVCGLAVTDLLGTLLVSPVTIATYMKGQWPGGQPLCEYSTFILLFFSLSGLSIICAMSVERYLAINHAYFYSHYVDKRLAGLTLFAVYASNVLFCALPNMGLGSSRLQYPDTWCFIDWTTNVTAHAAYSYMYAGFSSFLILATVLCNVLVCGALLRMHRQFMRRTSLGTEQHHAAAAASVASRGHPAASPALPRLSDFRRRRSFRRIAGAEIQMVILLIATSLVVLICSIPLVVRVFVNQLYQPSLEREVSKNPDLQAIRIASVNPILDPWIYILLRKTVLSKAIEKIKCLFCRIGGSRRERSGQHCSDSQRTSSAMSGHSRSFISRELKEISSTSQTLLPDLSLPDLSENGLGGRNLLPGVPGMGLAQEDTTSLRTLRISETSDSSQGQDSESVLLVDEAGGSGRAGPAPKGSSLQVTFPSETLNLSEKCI

Row | Compound | IC50 [nM]
1 | C[C@H](NC(=O)c1c(C(F)(F)F)nn2c1N(Cc1cccc(C(F)(F)F)c1)CC2)c1ccc(C(=O)NS(=O)(=O)c2ccc([N+](=O)[O-])cc2)cc1 [Compound 71, (S)—N-(1-(4-(((4-nitrophenyl)sulfonyl)carbamoyl)phenyl)ethyl)-6-(trifluoromethyl)-1-(3-(trifluoromethyl)benzyl)-2,3-dihydro-1H-imidazo[1,2-b]pyrazole-7-carboxamide] | 5.87
2 | C[C@H](NC(=O)c1c(C(F)(F)F)nn2c1N(Cc1cccc(C(F)(F)F)c1)CC2)c1ccc(C(=O)O)cn1 [Compound 39, (S)-6-(1-(6-(trifluoromethyl)-1-(3-(trifluoromethyl)benzyl)-2,3-dihydro-1H-imidazo[1,2-b]pyrazole-7-carboxamido)ethyl)nicotinic Acid] | 4.73
3 | C[C@H](NC(=O)c1c(C(F)(F)F)nn2c1N(Cc1ccccc1)CC2)c1ccc(C(=O)O)cc1 [Compound 70, (S)-4-(1-(1-benzyl-6-(trifluoromethyl)-2,3-dihydro-1H-imidazo[1,2-b]pyrazole-7-carboxamido)ethyl)benzoic acid] | 0.84
4 | COC(=O)c1ccc([C@H](C)NC(=O)c2c(C(F)(F)F)nn3c2N(Cc2cccc(C(F)(F)F)c2)CC3)cc1F [Compound 24, Methyl (S)-2-fluoro-4-(1-(6-(trifluoromethyl)-1-(3-(trifluoromethyl)benzyl)-2,3-dihydro-1H-imidazo[1,2-b]pyrazole-7-carboxamido)ethyl)benzoate] | 8.2
5 | C[C@H](NC(=O)c1c(C(F)(F)F)nn2c1N(Cc1ccccc1Cl)CC2)c1ccc(C(=O)O)cc1 [Compound 43, (S)-4-(1-(1-(2-chlorobenzyl)-6-(trifluoromethyl)-2,3-dihydro-1H-imidazo[1,2-b]pyrazole-7-carboxamido)ethyl)benzoic Acid] | 4.17
6 | C[C@H](NC(=O)c1c(C(F)(F)F)nn2c1N(Cc1ccc(CCCF)c(C(F)(F)F)c1)CC2)c1ccc(C(=O)O)cc1 [Compound 98, (S)-4-(1-(1-(4-(3-Fluoropropyl)-3-(trifluoromethyl)benzyl)-6-(trifluoromethyl)-2,3-dihydro-1H-imidazo[1,2-b]pyrazole-7-carboxamido)ethyl)benzoic Acid] | 17.7
7 | COC(=O)c1ccc([C@H](C)NC(=O)c2c(C(F)(F)F)nn3c2N(Cc2ccc(C(F)(F)F)cc2)CC3)cc1 [Compound 2, Methyl (S)-4-(1-(6-(trifluoromethyl)-1-(4-(trifluoromethyl)benzyl)-2,3-dihydro-1H-imidazo[1,2-b]pyrazole-7-carboxamido)ethyl)benzoate] | 3.9
8 | C[C@H](NC(=O)c1c(C(F)(F)F)nn2c1N(Cc1cccc(C(F)(F)F)c1)CC2)c1ccc(C(=O)NC#N)cc1 [Compound 52, (S)—N-(1-(4-(cyanocarbamoyl)phenyl)ethyl)-6-(trifluoromethyl)-1-(3-(trifluoromethyl)benzyl)-2,3-dihydro-1H-imidazo[1,2-b]pyrazole-7-carboxamide] | 0.07
9 | C[C@H](NC(=O)c1c(C(F)(F)F)nn2c1N(Cc1cccc(C(F)(F)F)c1)C[C@H]2CF)c1ccc(C(=O)O)cc1 [Compound 81, 4-((S)-1-((S)-3-(fluoromethyl)-6-(trifluoromethyl)-1-(3-(trifluoromethyl)benzyl)-2,3-dihydro-1H-imidazo[1,2-b]pyrazole-7-carboxamido)ethyl)benzoic acid] | 0.26
10 | C[C@H](NC(=O)c1c(C(F)(F)F)nn2c1N(Cc1ccccc1C(F)(F)F)CC2)c1ccc(C(=O)O)cc1 [Compound 4, (S)-4-(1-(6-(trifluoromethyl)-1-(2-(trifluoromethyl)benzyl)-2,3-dihydro-1H-imidazo[1,2-b]pyrazole-7-carboxamido)ethyl)benzoic Acid] | 22.4
11 | C[C@H](NC(=O)c1c(C(F)(F)F)nn2c1N(Cc1ccccc1C(F)(F)F)CCC2)c1ccc(C(=O)O)cc1 [Compound 46, (S)-4-(1-(2-(trifluoromethyl)-4-(2-(trifluoromethyl)benzyl)-4,5,6,7-tetrahydropyrazolo[1,5-a]pyrimidine-3-carboxamido)ethyl)benzoic Acid] | 100
12 | C[C@H](NC(=O)c1c(C(F)(F)F)nn2c1N(Cc1ccc(C(F)(F)F)cc1)CC2)c1ccc(C2CC2)cc1 [Compound 57, (S)—N-(1-(4-cyclopropylphenyl)ethyl)-6-(trifluoromethyl)-1-(4-(trifluoromethyl)benzyl)-2,3-dihydro-1H-imidazo[1,2-b]pyrazole-7-carboxamide] | 310
13 | Cc1cc([C@H](C)NC(=O)c2c(C(F)(F)F)nn3c2N(Cc2ccc(C(F)(F)F)cc2)CC3)ccc1-c1nn[nH]n1 [Compound 58, (S)—N-(1-(3-methyl-4-(2H-tetrazol-5-yl)phenyl)ethyl)-6-(trifluoromethyl)-1-(4-(trifluoromethyl)benzyl)-2,3-dihydro-1H-imidazo[1,2-b]pyrazole-7-carboxamide] | 4.71
14 | C[C@H](NC(=O)c1c(C(F)(F)F)nn2c1N(Cc1cccc(C(F)(F)F)c1)CC2)c1ccc(CC(=O)O)cc1 [Compound 26, (S)-2-(4-(1-(6-(trifluoromethyl)-1-(3-(trifluoromethyl)benzyl)-2,3-dihydro-1H-imidazo[1,2-b]pyrazole-7-carboxamido)ethyl)phenyl)acetic Acid] | 3.54
15 | C[C@H](NC(=O)c1c(C(F)(F)F)nn2c1N(Cc1cccc(OC(F)(F)F)c1)CC2)c1ccc(C(=O)O)cc1 [Compound 11, (S)-4-(1-(1-(3-(trifluoromethoxy)benzyl)-6-(trifluoromethyl)-2,3-dihydro-1H-imidazo[1,2-b]pyrazole-7-carboxamido)ethyl)benzoic Acid] | 0.41
16 | C[C@H](NC(=O)c1c(C(F)(F)F)nn2c1N(Cc1ccccc1Cl)CCC2)c1ccc(C(=O)O)cc1 [Compound 61, (S)-4-(1-(4-(2-chlorobenzyl)-2-(trifluoromethyl)-4,5,6,7-tetrahydropyrazolo[1,5-a]pyrimidine-3-carboxamido)ethyl)benzoic Acid] | 100
17 | C[C@H](NC(=O)c1c(C(F)(F)F)nn2c1N(Cc1cccc(C(F)(F)F)c1)CC2)c1ccc(C(=O)NS(=O)(=O)C2CC2)cc1 [Compound 56, (S)—N-(1-(4-((cyclopropylsulfonyl)carbamoyl)phenyl)ethyl)-6-(trifluoromethyl)-1-(3-(trifluoromethyl)benzyl)-2,3-dihydro-1H-imidazo[1,2-b]pyrazole-7-carboxamide] | 73
18 | C[C@H](NC(=O)c1c(C(F)(F)F)nn2c1[N+]([O-])(Cc1cccc(I)c1)CC2)c1ccc(C(=O)O)cc1 (stereo partly drawn) [Compound 76, 7-(((S)-1-(4-carboxyphenyl)ethyl)carbamoyl)-1-(3-iodobenzyl)-6-(trifluoromethyl)-2,3-dihydro-1H-imidazo[1,2-b]pyrazole 1-oxide] | 4.12
19 | C[C@H](NC(=O)c1c(C(F)(F)F)nn2c1N(Cc1ccc(C(F)(F)F)cc1)CC2)c1ccc(C(=O)O)c(F)c1 [Compound 21, (S)-2-fluoro-4-(1-(6-(trifluoromethyl)-1-(4-(trifluoromethyl)benzyl)-2,3-dihydro-1H-imidazo[1,2-b]pyrazole-7-carboxamido)ethyl)benzoic Acid] | 2.85
20 | Cc1nn2c(c1C(=O)NC1(c3ccc(C(=O)O)cc3)CC1)N([C@H](C)c1ccc(C(F)(F)F)cc1)CC2 [Compound 34, (R)-4-(1-(6-methyl-1-(1-(4-(trifluoromethyl)phenyl)ethyl)-2,3-dihydro-1H-imidazo[1,2-b]pyrazole-7-carboxamido)cyclopropyl)benzoic Acid] | 9.19
21 | C[C@H](NC(=O)c1c(C(F)(F)F)nn2c1N(Cc1ccc(C(F)(F)F)cc1)CC2)c1ccc(-c2ccoc2)cc1 [Compound 40, (S)—N-(1-(4-(furan-3-yl)phenyl)ethyl)-6-(trifluoromethyl)-1-(4-(trifluoromethyl)benzyl)-2,3-dihydro-1H-imidazo[1,2-b]pyrazole-7-carboxamide] | 150
22 | C[C@H](NC(=O)c1c(C(F)(F)F)nn2c1N(c1cccc(Cl)c1)CC2)c1ccc(C(=O)O)cc1 [Compound 49, (S)-4-(1-(1-(3-chlorophenyl)-6-(trifluoromethyl)-2,3-dihydro-1H-imidazo[1,2-b]pyrazole-7-carboxamido)ethyl)benzoic Acid] | 100
23 | C[C@H](NC(=O)c1c(C(F)(F)F)nn2c1N(Cc1cccc(C(F)(F)CO)c1)CC2)c1ccc(C(=O)O)cc1 [Compound 95, (S)-4-(1-(1-(3-(1,1-Difluoro-2-hydroxyethyl)benzyl)-6-(trifluoromethyl)-2,3-dihydro-1H-imidazo[1,2-b]pyrazole-7-carboxamido)ethyl)benzoic Acid] | 4.26
24 | C[C@H](NC(=O)c1c(C(F)(F)F)nn2c1N(Cc1cccc(Cl)c1)CCC2)c1ccc(C(=O)O)cc1 [Compound 42, (S)-4-(1-(4-(3-chlorobenzyl)-2-(trifluoromethyl)-4,5,6,7-tetrahydropyrazolo[1,5-a]pyrimidine-3-carboxamido)ethyl)benzoic Acid] | 13.6
25 | C[C@H](NC(=O)c1c(C(F)(F)F)nn2c1N(Cc1ccccc1F)CC2)c1ccc(C(=O)O)cc1 [Compound 16, (S)-4-(1-(1-(2-fluorobenzyl)-6-(trifluoromethyl)-2,3-dihydro-1H-imidazo[1,2-b]pyrazole-7-carboxamido)ethyl)benzoic Acid] | 1.4
26 | C[C@H](NC(=O)c1c(C(F)(F)F)nn2c1N(Cc1cccc(OC(F)(F)F)c1)CC2)c1ccc(C(=O)NS(=O)(=O)c2ccccc2)cc1 [Compound 54, (S)—N-(1-(4-((phenylsulfonyl)carbamoyl)phenyl)ethyl)-1-(3-(trifluoromethoxy)benzyl)-6-(trifluoromethyl)-2,3-dihydro-1H-imidazo[1,2-b]pyrazole-7-carboxamide] | 21.6
